# Experimental data reported in patent publication US9758557B2, “C1q peptides and uses thereof” (THE FEINSTEIN INSTITUTE FOR MEDICAL RESEARCH, priority 2013, dated 2017).
# Experiments:
# R4A binding to dsDNA = assay: DNA ELISA, inhibition of R4A binding to dsDNA by fluid phase C1q; settings: immobilized dsDNA
# Description: (§1) ELISAs—Costar half-volume 96-well plates (Corning, N.Y.) were used for C1q ELISAs and Immulon 2HB 96-well plates (Milford, Mass.) were used for DNA ELISAs. C1q was purchased from Comptech (Tyler, Tex.) and adsorbed to 96-well plate (50 μg/ml) Plates were blocked with 2% BSA in PBS for 1 hour at RT. R4A antibody or IgG2b control immunoglobulin (MPC-11 hybridoma, ATCC, Manassas, Va.) was added for 1 hour at RT at various concentrations of NaCl. Cytokine ELISA was performed according to manufacturer's protocol (BD Biosciences, San Diego, Calif.). C1q collagen-tail of C1q was prepared as described in [21].
# R4A binding to C1q = assay: ELISA, inhibition of R4A binding to C1q by peptide
# Description: as §1
Substance,inhibition of R4A binding to dsDNA (R4A binding to dsDNA),inhibition of R4A binding to C1q (R4A binding to C1q)
"C1q: human complement C1q, purchased from Comptech",inhibited,
EADYG (fusion protein),,inhibited
DWEYS [reference compound],,inhibited
